US7109225B2, “Substituted oxazole derivatives” (Hofmann-la Roche Inc., priority 2002, dated 2006)

Legend:
[1] = molecular target: T1, PPARα (Homo sapiens, UniProt Q07869); test: Radioligand binding assay, GST-PPARα-LBD fusion protein; parameters: PPARα (aa 167 to 469)
T1 sequence (Q07869 167-468 limits assumed): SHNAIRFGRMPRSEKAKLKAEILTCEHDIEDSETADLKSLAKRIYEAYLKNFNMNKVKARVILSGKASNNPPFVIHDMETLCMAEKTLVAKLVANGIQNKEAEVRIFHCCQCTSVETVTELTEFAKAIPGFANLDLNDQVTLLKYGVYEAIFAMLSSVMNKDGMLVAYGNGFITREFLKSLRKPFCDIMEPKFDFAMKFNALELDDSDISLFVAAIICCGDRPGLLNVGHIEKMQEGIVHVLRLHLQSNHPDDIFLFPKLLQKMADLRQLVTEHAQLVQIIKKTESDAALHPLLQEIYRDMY
From the text: (§1) Full-length cDNA clones for human PPARα and mouse PPARγ were obtained by RT-PCR from human adipose and mouse liver cRNA, respectively, cloned into plasmid vectors and verified by DNA sequencing. […] To accomplish this, the portions of the cloned sequences encoding the LBDs were amplified from the full-length clones by PCR and then subcloned into the plasmid vectors. Final clones were verified by DNA sequence analysis.
(§2) Induction, expression, and purification of GST-LBD fusion proteins were performed in E. coli strain BL21 (pLysS) cells by standard methods (Ref: Current Protocols in Molecular Biology, Wiley Press, edited by Ausubel et al.).
(§3) Radioligand Binding Assay
PPARα receptor binding was assayed in TKE10 (10 mM Tris-HCl, pH 8, 50 mM KCl, 2 mM EDTA, 0.1 mg/ml fatty acid free BSA and 10 mM DTT). […]
PPARγ receptor binding was assayed in TKE50 (50 mM Tris-HCl, pH 8, 50 mM KCl, 2 mM EDTA, 0.1 mg/ml fatty acid-free BSA and 10 mM DTT). […] All binding assays were performed in 96 well plates and the amount of bound ligand measured on a Packard TopCount using OptiPlates (Packard). Nonspecific binding was determined in the presence of 10^−4 M unlabelled compound. […]

[2] = molecular target: T2, PPARγ (Mus musculus, UniProt P37238); test: Radioligand binding assay (scintillation proximity), GST-PPARγ-LBD fusion protein; parameters: PPARγ (aa 174 to 476); details: radioligand binding (SPA)
T2 sequence (P37238 204-505): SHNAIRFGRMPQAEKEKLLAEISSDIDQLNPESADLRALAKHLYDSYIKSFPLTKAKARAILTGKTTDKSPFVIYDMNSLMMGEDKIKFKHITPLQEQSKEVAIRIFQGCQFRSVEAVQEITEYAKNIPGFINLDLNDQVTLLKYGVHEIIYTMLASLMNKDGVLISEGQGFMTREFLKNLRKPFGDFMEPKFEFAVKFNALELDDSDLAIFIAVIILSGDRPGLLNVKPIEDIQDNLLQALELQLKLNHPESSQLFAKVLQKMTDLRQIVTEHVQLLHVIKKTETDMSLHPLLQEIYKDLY
From the text: Background information on the performed assays can be found in: Nichols J S et al. “Development of a scintillation proximity assay for peroxisome proliferator-activated receptor gamma ligand binding domain”, (1998) Anal. Biochem. 257: 112–119.
(§4) Full-length cDNA clones for human PPARα and mouse PPARγ were obtained by RT-PCR from human adipose and mouse liver cRNA, respectively, cloned into plasmid vectors and verified by DNA sequencing. Bacterial and mammalian expression vectors were constructed to produce glutathione-s-transferase (GST) and Gal4 DNA binding domain proteins fused to the ligand binding domains (LBD) of PPARγ (aa 174 to 476) and PPARα (aa 167 to 469). To accomplish this, the portions of the cloned sequences encoding the LBDs were amplified from the full-length clones by PCR and then subcloned into the plasmid vectors. Final clones were verified by DNA sequence analysis.
as §2, §3
PPARγ receptor binding was assayed in TKE50 (50 mM Tris-HCl, pH 8, 50 mM KCl, 2 mM EDTA, 0.1 mg/ml fatty acid-free BSA and 10 mM DTT). For each 96 well reaction an 140 ng equivalent of GST-PPARγ-LBD fusion protein was bound to 10 ug SPA beads (PharmaciaAmersham) in a final volume of 50 ul by shaking. The resulting slurry was incubated for 1 h at RT and centrifuged for 2 min at 1300 g. The supernatant containing unbound protein was removed and the semidry pellet containig the recptor-coated beads was resolved in 50 ul of TKE. For radioligand binding e.g. 10000 dpm 2(S)-(2-benzoyl-phenylamino)-3-{4-[1,1-ditritio-2-(5-methyl-2-phenyl-oxazol-4-yl)-ethoxy]-phenyl}-propionic acid in 50 ul were added, the reaction incubated at RT for 1 h and scintillation proximity counting performed. All binding assays were performed in 96 well plates and the amount of bound ligand measured on a Packard TopCount using OptiPlates (Packard). Nonspecific binding was determined in the presence of 10^−4 M unlabelled compound. Dose response curves were done in triplicates within a range of concentration from 10^−10 M to 10^−4 M.

[3] = molecular target: T1, PPARα; test: Luciferase transcriptional reporter gene assay, BHK21 cells transfected with pFA-PPARα-LBD; type: cell-based; parameters: PPARα (aa 167 to 469); expressed in transfected cells; host or cells: BHK21 (ATCC CCL10); details: Gal4-PPARα-LBD
From the text: as §1
(§5) Luciferase Transcriptional Reporter Gene Assays
(§6) Baby hamster kidney cells (BHK21 ATCC CCL10) were grown in DMEM medium containing 10% FBS at 37° C. in a 95%02:5%CO2 atmosphere. Cells were seeded in 6 well plates at a density of 10^5 Cells/well and then batch-transfected with either the pFA-PPARγ-LBD or pFA-PPARα-LBD expression plasmids plus a reporter plasmid and an expression plasmid encoding the secretable form of alkaline phosphatase (SEAP) as a normalization control. […] Six hours following transfection, the cells were harvested by trypsinization and seeded in 96 well plates at a density of 10^4 cells/well. After 24 hours to allow attachment of cells, the medium was removed and replaced with 100 ul of phenol red-free medium containing the test substances or control ligands (final DMSO concentration: 0.1%). Following incubation of the cells for 24 hours with substances, 50 ul of the supernatant was recovered and analyzed for SEAP activity (Roche Molecular Biochemicals). The remainder of the supernatant was discarded, 50 ul PBS was added per well followed by one volume of Luciferase Constant-Light Reagent (Roche Molecular Biochemicals) to lyse the cells and initiate the luciferase reaction. Luminescence for both SEAP and luciferase was measured in a Packard TopCount. Luciferase activity was normalized to the SEAP control and transcriptional activation in the presence of a test substance was expressed as fold-activation over cells incubated in the absence of the substance. EC50 values were calculated using the XLfit program (ID Business Solutions Ltd. UK).

[4] = molecular target: T2, PPARγ; test: Luciferase transcriptional reporter gene assay, BHK21 cells transfected with pFA-PPARγ-LBD; type: cell-based; parameters: PPARγ (aa 174 to 476); expressed in transfected cells; host or cells: BHK21 (ATCC CCL10); details: Gal4-PPARγ-LBD
From the text: as §4, §5, §6

melting point | IC50 [1] | IC50 [2] | EC50 [3] | EC50 [4] | SMILES
103 to 105 °C | 53 nM | 153 nM | 35 nM | 237 nM | CCO[C@@H](Cc1ccc(OCCc2nc(C(C)(C)C)oc2C)c2ccccc12)C(=O)O [Example 1, (S)-3-{4-[2-(2-tert-Butyl-5-methyl-oxazol-4-yl)-ethoxy]-naphthalen-1-yl}-2-ethoxy-propionic acid]
159 to 160 °C |  | 69 nM | 27 nM | 19 nM | Cc1oc(C(C)(C)C)nc1CCOc1ccc(CC(OC(C)C)C(=O)O)c2sccc12 (stereo not shown) [Example 8, 3-{4-[2-(2-tert-Butyl-5-methyl-oxazol-4-yl)-ethoxy]-benzo[b]thiophen-7-yl}-2-isopropoxy-propionic acid]
61 to 63 °C |  | 202 nM | 62 nM | 80 nM | CCCOC(Cc1ccc(OCCc2nc(C3CC3)oc2C)c2ccsc12)C(=O)O (stereo not shown) [Example 31, 3-{4-[2-(2-Cyclopropyl-5-methyl-oxazol-4-yl)-ethoxy]-benzo[b]thiophen-7-yl}-2-propoxy-propionic acid]
 |  | 162 nM | 6 nM | 67 nM | CCCOC(Cc1ccc(OCCc2nc(CC(C)(C)C)oc2C)c2ccccc12)C(=O)O (stereo not shown) [Example 33, 3-(4-{2-[2-(2,2-Dimethyl-propyl)-5-methyl-oxazol-4-yl]-ethoxy}-naphthalen-1-yl)-2-propoxy-propionic acid]
